From patent US9585875B2, “TRPM8 antagonists” (Dompé S.P.A., priority 2011, dated 2017)

Tests used:
Microsome stability [1] = assay type: in vitro ADME; details: rat
CYP 2C19 = CYP 2C19 (Homo sapiens, UniProt P33261); test: CYP inhibition; assay type: in vitro ADME
TRPM8 = TRPM8 (Homo sapiens, UniProt Q7Z2W7); test: HTS cell-based Ca2+ mobilization assay (FLIPR TETRA) in HEK293/hTRPM8 cells, agonist Cooling Agent 10; set-up: expressed in transfected cells; details: HEK293/hTRPM8, Cooling Agent 10 at EC80
Excerpt: A functional cell-based assay for the identification of TRPM8 receptor antagonists, optimised to allow high throughput screening at FLIPR^TETRA, was developed in HEK293 cells by stable pure clone selection and functional characterization with a fluorescent calcium sensitive dye.
TRPM8 was cloned into the multiple cloning site of pcDNA3 mammalian expression vector; the obtained construct pcDNA3/hTRPM8 was fully sequence verified and used for the transfection of HEK293 cell line. HEK293 cells stably transfected with TRPM8 gene were maintained in Minimum essential medium. The cells were transfected with the pcDNA3/hTRPM8 vector by electroporation and then selected with medium containing 0.8 mg/ml G418 for 10-15 days.
The following commercial compounds were used as ligands:
Activator: Cooling Agent 10 (Takasago CAS N. 87061-04-9)
Blocker: Capsazepine (SIGMA cat #D_5879)
The experimental activities were performed using FLIPR^TETRA instruments.
HEK293 cells stably transfected with TRPM8 gene were maintained in Minimum essential medium.
The TRPM8 cell line was analysed for the response to a library of compounds using a Ca^2+ mobilization-dependent fluorescence signal in 384 wells microtiter plate format. The analysis was performed using the FLIPR^TETRA (MDC) with the ICCD Camera.
The execution of the assay involved the use of three microtiter plates:
1. Assay plate, containing cells loaded with dye and prepared as follows:
Cells were seeded at 15000 c/well in Poly-D-Lysine coated 384 wells Microtiter Plates in complete medium (25 μl/well).
24 h after seeding, the cell plates were washed with Tyrode assay buffer by the Microplate Washer and 10 μL of Tyrode assay buffer was left in each well.
Cells were then loaded with 10 μL/well of the Fluo-4 NW dye solution by CyBi®-Well pipettor. Each bottle of Fluo4-NW dye (Molecular Probes cat. #F36206, component A) was re-suspended in 8 mL of Tyrode assay buffer and supplemented with 100 μL of water-soluble probenecid (MolecularProbes cat.#F36206, component B).
Dye loaded cell plates were incubated for 1 h at room temperature.
2. Compound Dilution Plate (FIG. 1), containing diluted test compounds, formulated as follows: […]
Column 1: wells containing Assay Buffer plus DMSO 0.5% final
Columns 3-22: wells containing Assay Buffer plus 0.5% DMSO final. To these wells the compounds to be tested were added at 3× concentration.
Column 23: alternating wells of Max Signal Control in second injection (Assay buffer) and Min Signal Control in second injection (Antagonist Capsazepine IC100, 50 μM) in Assay buffer plus 0.5% DMSO final;
Column 24: wells containing Capsazepine (Antagonist) at 8 concentrations in duplicate at final concentrations of 50 μM, 25 μM, 6.25 μM, 3.15 μM, 1.56 μM, 780 nM, […] in Assay buffer plus 0.5% DMSO final.
3. Activator Plate (FIG. 2), containing agonist Cooling Agent 10 at EC80, formulated as follows:
Column 1: Cooling Agent 10 (Agonist) at 8 concentrations dose response in duplicate at final concentrations of 100 μM, 31.6 μM, 10 μM, 3.16 μM, 1 μM, 316 nM, 100 nM, 31.6 nM in Assay buffer;
Columns 2-24: Cooling Agent 10 (Agonist) at EC80 (3 fold concentrated, 20 μM final) in Assay buffer.
The test was carried out according to a procedure comprising the following steps:
1. The samples contained in the wells of the Compound Plate were added to the corresponding wells of the Assay Plate by the FLIPR^TETRA, thus resulting in the addition in Columns 3-22 of the test compounds at 3× concentration to the cells of the assay plates. No mixing was performed in the assay wells and the signal of the emitted fluorescence was recorded for 300 seconds. 2. The samples contained in the wells of the Activator Plate were added to the corresponding wells of the Assay Plate by the FLIPR^TETRA, thus resulting in the addition in Columns 3-22 of the Assay Plate of the agonist compound in addition to the test compounds. The signal of the emitted fluorescence was recorded for 180 seconds.

CYP 1A2 = CYP 1A2 (Homo sapiens, UniProt P05177); test: CYP inhibition; assay type: in vitro ADME
CYP 2D6 = CYP 2D6 (Homo sapiens, UniProt P10635); test: CYP inhibition; assay type: in vitro ADME
TRPV4 = TRPV4 (Homo sapiens, UniProt Q9HBA0); test: Calcium influx counterassay, agonist GSK1016790A; assay type: cell-based; details: 10 μM GSK1016790A = 100%, read-out: Normalized % inhibition (TRPV4); for inhibition at 1 µM: Test Conc. 1 uM; for inhibition at 10 µM: Test Conc. 10 uM
Method: In parallel, the ability of each test compound to act as an antagonist of TRPV4 was evaluated with a calcium influx assay.

hERG channel = hERG channel (Homo sapiens, UniProt Q12809); test: hERG binding
Plasma Protein Binding [2] = assay type: in vitro ADME; details: rat
CYP 2C9 = CYP 2C9 (Homo sapiens, UniProt P11712); test: CYP inhibition; assay type: in vitro ADME
Microsome stability [3] = assay type: in vitro ADME; details: human
TRPV1 = TRPV1 (Homo sapiens, UniProt Q8NER1); test: Calcium influx counterassay, agonist capsaicin; assay type: cell-based; details: 0.1 μM capsaicin = 100%, read-out: Normalized % inhibition (TRPV1); for inhibition at 1 µM: Test Conc. 1 uM; for inhibition at 10 µM: Test Conc. 10 uM
Method: In order to address more specifically the potential selectivity issues, a counterassay was carried out for 10, 45 and 118 against TRPV1 and TRPV4 ion channels, both involved in the nociception (Jhaveri M D, et al 2005. Eur. J. Neurosci. 22 (2): 361-70, Brierley S M et al, 2008, Gastroenterology. 2008 June; 134(7):2059-69. ). The ability of each test compound to act as an antagonist of TRPV1 was evaluated with a calcium influx assay.

Plasma Protein Binding [4] = assay type: in vitro ADME; details: human

Sequence of TRPV4 (Q9HBA0 whole entry, species assumed): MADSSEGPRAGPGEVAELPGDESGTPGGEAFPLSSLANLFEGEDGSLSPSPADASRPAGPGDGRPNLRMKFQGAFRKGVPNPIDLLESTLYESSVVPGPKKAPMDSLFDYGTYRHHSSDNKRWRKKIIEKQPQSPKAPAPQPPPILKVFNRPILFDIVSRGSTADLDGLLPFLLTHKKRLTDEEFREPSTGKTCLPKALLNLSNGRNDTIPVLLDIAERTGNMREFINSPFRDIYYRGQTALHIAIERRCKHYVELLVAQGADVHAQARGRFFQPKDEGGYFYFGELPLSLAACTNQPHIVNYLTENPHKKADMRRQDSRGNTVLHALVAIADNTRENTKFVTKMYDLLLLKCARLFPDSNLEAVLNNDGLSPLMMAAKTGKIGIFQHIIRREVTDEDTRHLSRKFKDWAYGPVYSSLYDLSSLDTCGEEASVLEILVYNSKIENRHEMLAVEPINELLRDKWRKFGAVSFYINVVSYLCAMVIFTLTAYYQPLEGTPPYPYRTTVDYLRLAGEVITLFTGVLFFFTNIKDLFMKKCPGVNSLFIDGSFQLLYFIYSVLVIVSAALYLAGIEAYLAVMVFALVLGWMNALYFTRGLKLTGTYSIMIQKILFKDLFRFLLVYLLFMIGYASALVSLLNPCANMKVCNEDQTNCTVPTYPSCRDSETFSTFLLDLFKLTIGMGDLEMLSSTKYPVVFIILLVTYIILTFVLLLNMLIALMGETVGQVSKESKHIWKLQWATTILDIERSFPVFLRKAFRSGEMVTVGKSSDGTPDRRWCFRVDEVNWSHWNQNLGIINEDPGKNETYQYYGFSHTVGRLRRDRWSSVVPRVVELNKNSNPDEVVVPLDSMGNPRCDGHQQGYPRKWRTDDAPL
Sequence of TRPV1 (Q8NER1 whole entry, species assumed): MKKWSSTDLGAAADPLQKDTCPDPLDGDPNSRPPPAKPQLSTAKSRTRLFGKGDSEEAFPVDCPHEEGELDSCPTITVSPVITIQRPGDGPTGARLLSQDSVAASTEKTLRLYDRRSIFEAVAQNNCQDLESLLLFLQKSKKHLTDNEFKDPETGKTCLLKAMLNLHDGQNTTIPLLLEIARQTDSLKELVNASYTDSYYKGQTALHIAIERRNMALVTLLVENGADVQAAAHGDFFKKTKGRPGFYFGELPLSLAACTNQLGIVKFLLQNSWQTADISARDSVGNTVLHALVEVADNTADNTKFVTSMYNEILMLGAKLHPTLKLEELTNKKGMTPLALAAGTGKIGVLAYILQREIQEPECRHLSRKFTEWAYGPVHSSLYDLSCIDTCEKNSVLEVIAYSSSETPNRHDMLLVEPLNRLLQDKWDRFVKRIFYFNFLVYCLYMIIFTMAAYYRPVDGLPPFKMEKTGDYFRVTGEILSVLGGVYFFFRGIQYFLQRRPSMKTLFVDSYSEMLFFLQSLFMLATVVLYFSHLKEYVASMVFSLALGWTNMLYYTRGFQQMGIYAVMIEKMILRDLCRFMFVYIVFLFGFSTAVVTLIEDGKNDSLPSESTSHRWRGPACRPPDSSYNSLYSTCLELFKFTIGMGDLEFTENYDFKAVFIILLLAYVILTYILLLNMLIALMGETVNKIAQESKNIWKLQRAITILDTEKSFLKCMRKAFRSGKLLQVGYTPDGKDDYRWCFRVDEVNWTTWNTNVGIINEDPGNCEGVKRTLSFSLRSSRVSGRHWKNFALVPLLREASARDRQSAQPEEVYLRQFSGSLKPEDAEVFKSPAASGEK
Sequence of CYP 1A2 (P05177 whole entry): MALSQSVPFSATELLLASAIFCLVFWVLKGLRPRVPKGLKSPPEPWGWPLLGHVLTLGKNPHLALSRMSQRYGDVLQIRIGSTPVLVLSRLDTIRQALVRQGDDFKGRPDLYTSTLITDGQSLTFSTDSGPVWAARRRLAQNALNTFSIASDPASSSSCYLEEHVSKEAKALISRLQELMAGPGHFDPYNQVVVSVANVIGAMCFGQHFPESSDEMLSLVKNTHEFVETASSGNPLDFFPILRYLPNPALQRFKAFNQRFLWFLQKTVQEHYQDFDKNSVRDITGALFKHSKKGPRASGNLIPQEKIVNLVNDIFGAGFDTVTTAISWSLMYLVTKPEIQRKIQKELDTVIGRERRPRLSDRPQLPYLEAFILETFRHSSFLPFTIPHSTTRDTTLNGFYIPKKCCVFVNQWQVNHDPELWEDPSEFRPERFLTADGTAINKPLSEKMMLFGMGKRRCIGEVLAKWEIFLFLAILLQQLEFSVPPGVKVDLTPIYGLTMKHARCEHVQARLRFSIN
Sequence of CYP 2D6 (P10635 whole entry): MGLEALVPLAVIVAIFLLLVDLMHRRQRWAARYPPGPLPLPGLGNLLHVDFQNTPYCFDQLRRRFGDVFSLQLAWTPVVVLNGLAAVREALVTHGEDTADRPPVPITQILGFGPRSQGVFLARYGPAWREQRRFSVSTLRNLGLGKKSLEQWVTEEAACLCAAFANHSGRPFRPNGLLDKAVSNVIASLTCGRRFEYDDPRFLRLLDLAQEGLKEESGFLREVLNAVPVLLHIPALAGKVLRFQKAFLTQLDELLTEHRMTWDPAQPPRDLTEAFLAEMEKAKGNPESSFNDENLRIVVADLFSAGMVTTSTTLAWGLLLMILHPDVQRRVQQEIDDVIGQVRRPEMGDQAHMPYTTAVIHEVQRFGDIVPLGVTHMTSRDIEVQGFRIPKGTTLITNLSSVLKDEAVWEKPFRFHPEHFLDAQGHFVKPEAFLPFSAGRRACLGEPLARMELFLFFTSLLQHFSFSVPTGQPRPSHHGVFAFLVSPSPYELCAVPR
Sequence of CYP 2C9 (P11712 whole entry): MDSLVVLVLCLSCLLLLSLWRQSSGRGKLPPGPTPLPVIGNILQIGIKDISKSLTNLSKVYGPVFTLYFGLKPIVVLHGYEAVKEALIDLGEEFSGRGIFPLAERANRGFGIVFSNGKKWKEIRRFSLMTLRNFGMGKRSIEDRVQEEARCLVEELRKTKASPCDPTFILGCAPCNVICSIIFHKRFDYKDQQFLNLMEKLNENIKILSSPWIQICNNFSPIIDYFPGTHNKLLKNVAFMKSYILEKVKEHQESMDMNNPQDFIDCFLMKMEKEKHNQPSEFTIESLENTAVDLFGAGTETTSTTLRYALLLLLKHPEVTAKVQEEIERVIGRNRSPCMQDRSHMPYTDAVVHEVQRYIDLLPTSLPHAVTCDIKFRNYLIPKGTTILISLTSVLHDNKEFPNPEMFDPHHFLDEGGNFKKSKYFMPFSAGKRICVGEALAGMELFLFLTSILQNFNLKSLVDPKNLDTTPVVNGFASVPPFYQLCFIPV
Sequence of hERG channel (Q12809 whole entry): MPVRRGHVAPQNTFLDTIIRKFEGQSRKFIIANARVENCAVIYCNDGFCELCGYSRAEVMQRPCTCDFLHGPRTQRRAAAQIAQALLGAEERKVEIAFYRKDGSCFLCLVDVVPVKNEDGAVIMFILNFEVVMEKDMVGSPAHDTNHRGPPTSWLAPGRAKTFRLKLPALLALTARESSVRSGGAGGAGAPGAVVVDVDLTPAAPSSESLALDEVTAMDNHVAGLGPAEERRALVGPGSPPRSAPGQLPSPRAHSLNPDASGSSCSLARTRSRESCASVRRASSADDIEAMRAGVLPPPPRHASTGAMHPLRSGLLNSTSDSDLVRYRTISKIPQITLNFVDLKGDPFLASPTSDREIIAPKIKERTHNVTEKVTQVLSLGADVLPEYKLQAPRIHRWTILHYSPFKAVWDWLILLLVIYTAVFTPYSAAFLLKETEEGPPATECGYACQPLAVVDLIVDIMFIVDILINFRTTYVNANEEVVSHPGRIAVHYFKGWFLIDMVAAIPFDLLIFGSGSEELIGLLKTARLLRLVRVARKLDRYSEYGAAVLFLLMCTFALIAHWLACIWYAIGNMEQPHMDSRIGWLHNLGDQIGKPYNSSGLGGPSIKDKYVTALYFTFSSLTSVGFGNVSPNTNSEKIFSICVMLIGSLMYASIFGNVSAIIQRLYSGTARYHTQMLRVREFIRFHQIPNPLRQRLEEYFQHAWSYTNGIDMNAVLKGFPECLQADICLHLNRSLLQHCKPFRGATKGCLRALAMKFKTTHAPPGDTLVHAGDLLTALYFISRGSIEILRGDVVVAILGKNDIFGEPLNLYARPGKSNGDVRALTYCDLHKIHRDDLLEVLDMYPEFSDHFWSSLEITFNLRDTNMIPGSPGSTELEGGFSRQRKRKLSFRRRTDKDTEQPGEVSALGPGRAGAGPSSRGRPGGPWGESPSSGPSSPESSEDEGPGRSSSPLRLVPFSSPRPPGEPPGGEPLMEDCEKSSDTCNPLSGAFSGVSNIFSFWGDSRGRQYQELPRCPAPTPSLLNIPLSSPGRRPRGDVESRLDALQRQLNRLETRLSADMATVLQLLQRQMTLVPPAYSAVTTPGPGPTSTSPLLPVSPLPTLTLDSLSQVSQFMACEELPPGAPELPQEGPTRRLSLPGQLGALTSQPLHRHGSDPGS
Sequence of CYP 2C19 (P33261 whole entry): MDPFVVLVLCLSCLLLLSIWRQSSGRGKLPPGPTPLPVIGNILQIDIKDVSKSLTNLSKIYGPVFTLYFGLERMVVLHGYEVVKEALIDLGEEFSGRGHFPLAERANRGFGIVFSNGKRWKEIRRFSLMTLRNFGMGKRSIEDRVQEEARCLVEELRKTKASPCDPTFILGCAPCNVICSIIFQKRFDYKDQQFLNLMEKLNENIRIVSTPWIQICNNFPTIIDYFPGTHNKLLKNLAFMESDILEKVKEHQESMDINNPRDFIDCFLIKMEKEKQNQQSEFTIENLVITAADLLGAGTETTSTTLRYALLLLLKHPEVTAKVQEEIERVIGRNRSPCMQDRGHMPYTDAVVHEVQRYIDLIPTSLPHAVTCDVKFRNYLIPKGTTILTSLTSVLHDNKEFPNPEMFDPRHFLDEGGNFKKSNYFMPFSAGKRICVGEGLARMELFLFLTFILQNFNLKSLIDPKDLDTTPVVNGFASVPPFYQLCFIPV

Row | Structure (SMILES) | Microsome stability (% remaining) @1 μM (Microsome stability [1]) | CYP (% inhibition) @10 μM, 2C19 (CYP 2C19) | IC50 (TRPM8) | CYP (% inhibition) @10 μM, 1A2 (CYP 1A2) | CYP (% inhibition) @10 μM, 2D6 (CYP 2D6) | inhibition at 1 µM (TRPV4) | inhibition at 10 µM (TRPV4) | hERG binding @10 μM (hERG channel) | fraction unbound at 10 μM (Plasma Protein Binding [2]) | CYP (% inhibition) @10 μM, 2C9 (CYP 2C9) | Microsome stability (% remaining) @1 μM (Microsome stability [3]) | inhibition at 1 µM (TRPV1) | inhibition at 10 µM (TRPV1) | fraction unbound at 10 μM (Plasma Protein Binding [4])
1 | CCOC(=O)c1sc(-c2cccc(F)c2)nc1O [Compound 10, ethyl 2-(3-fluorophenyl)-4-hydroxy-1,3-thiazole-5-carboxylate] | 4% | <5% | 1000 nM | <5% | <5% | 2% | 8.9% | No effect | 0.02 | <5% | 5% | 1.2% | 2.3% | 0.03
2 | O=C(O)c1sc(-c2ccc(Cl)cc2)nc1OCc1ccc(Cl)cc1 [Compound 45, 4-[(4-chlorobenzyl)oxy]-2-(4-chlorophenyl)-1,3-thiazole-5-carboxylic acid] |  | <5% | 0.2 nM | <5% | <5% | 5.1% | 3.1% | No effect | 0.01 | <5% |  | 3.1% | 6.3% | 0.01
